Assay results taken from the supplement of paper PMC11061612.

Legend:
[1] = system: NCI-H1651 (Lung Adenocarcinoma); assay: combination Emax (second highest fraction inhibited in the dose matrix, 72 h); higher = more inhibition; extreme values may be limits of the assay
Outline: (§1)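 Cell lines in DMEM/F12 or RPMI with 10% FBS were plated in 1536-well plates, held 24 hours at 37°C, 5% CO2, then given two-drug dose matrices for 72 hours (DMSO typically 0.2%). Viability was read by CellTiter-Glo 2.0 luminescence and scaled as inhibition from 0 (vehicle wells) to 1 (blank wells). Combination Emax is the second-highest inhibition in the matrix; Bliss excess is observed combination effect minus expected EA + EB − EA·EB, EA and EB being single-agent effects.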

[2] = system: SW620 (Colorectal Carcinoma); assay: as above
Outline: as §1

[3] = system: JHH-2 (Hepatocellular Carcinoma); assay: as above
Outline: as §1

[4] = system: IM-9 (Non-Cancerous); assay: as above
Outline: as §1

[5] = system: NB13 (Neuroblastoma); assay: as above
Outline: as §1

[6] = system: A2780 (Ovarian Carcinoma); assay: Bliss excess, mean over the matrix (fraction); higher = more synergy
Outline: as §1

[7] = system: PEO1 (Ovarian Carcinoma); assay: as above
Outline: as §1
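Throughout, for Bliss excess, mean over the matrix: after 72 h of two-drug dosing.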

Structure (SMILES) | combination Emax [1] | combination Emax [2] | combination Emax [3] | combination Emax [4] | combination Emax [5] | Bliss excess [6] | Bliss excess [7]
C[C@@H]1COCCN1c1cc(C2([S@](C)(=N)=O)CC2)nc(-c2ccnc3[nH]ccc23)n1 [AZD6738] + C1CC(C1)(C(=O)[O-])C(=O)[O-].N.N.[Pt+2] [Carboplatin] (first compound max 10 µM, 7x7, partner max 10 µM) | 0.641 | 0.478 | 0.507 | 0.966 | 0.81 | -0.0379 | -0.0595
CC1(C)CCC(CN2CCN(c3ccc(C(=O)NS(=O)(=O)c4ccc(NCC5CCOCC5)c([N+](=O)[O-])c4)c(Oc4cnc5[nH]ccc5c4)c3)CC2)=C(c2ccc(Cl)cc2)C1 [Venetoclax] + CS(=O)(=O)CCNCc1ccc(-c2ccc3ncnc(Nc4ccc(OCc5cccc(F)c5)c(Cl)c4)c3c2)o1 [Lapatinib] (first compound max 1 µM, 7x7, partner max 10 µM) | 0.129 | 0.184 | 0.395 | 0.958 | 0.43 | -0.0363 | -0.0673
Cc1nc(-c2cn3c(n2)-c2ccc(-c4cnn(C(C)(C)C(N)=O)c4)cc2OCC3)n(C(C)C)n1 [Taselisib] + O=C(Nc1ccc2[nH]nc(-c3ccncc3)c2c1)[C@@H]1CCN(CC(=O)N2CCN(c3ccc(-c4ncccn4)cc3)CC2)C1 [SCH772984] (first compound max 10 µM, 7x7, partner max 5 µM) | 0.24 | 0.764 | 0.971 | 0.851 | 0.424 | -0.0087 | 0.0874
C[C@@H](Nc1cc(F)cc(F)c1)c1cc(C(=O)N(C)C)cc2c(=O)cc(N3CCOCC3)oc12 [AZD8186] + CC(=O)c1c(C)c2cnc(Nc3ccc(N4CCNCC4)cn3)nc2n(C2CCCC2)c1=O [Palbociclib] (first compound max 10 µM, 7x7, partner max 10 µM) | 0.17 | 0.481 | 0.693 | 0.682 | – | 0.0054 | -0.026
O=C(c1cc(Cc2n[nH]c(=O)c3ccccc23)ccc1F)N1CCN(C(=O)C2CC2)CC1 [Olaparib] + Cc1c2c(nn1C)CSCc1cc(n(C)n1)CSc1cc(c3ccccc3c1)OCCCc1c(C(=O)O)n(C)c3c-2c(Cl)ccc13 [AZD5991] (first compound max 10 µM, 7x7, partner max 1 µM) | 0.293 | 0.173 | 0.163 | 0.903 | – | 0.0369 | -0.069
Cc1c2c(nn1C)CSCc1cc(n(C)n1)CSc1cc(c3ccccc3c1)OCCCc1c(C(=O)O)n(C)c3c-2c(Cl)ccc13 [AZD5991] + CC(=O)O[C@H]1C(=O)[C@@]2(C)[C@H]([C@H](OC(=O)c3ccccc3)[C@]3(O)C[C@H](OC(=O)[C@H](O)[C@@H](NC(=O)c4ccccc4)c4ccccc4)C(C)=C1C3(C)C)[C@]1(OC(C)=O)CO[C@@H]1C[C@@H]2O [Paclitaxel] (first compound max 1 µM, 7x7, partner max 3 µM) | 0.912 | 0.788 | 0.783 | 1 | – | 0.0614 | -0.0624
C[C@@H](Oc1cc(-c2cnn(C3CCNCC3)c2)cnc1N)c1c(Cl)ccc(F)c1Cl [Crizotinib] + Cn1cnc2c(F)c(Nc3ccc(Br)cc3Cl)c(C(=O)NOCCO)cc21 [Selumetinib] (first compound max 10 µM, 7x7, partner max 10 µM) | 0.0815 | 0.861 | 0.598 | 1 | 0.804 | 0.0077 | -0.0013
Cc1c2c(nn1C)CSCc1cc(n(C)n1)CSc1cc(c3ccccc3c1)OCCCc1c(C(=O)O)n(C)c3c-2c(Cl)ccc13 [AZD5991] + CS(=O)(=O)CCNCc1ccc(-c2ccc3ncnc(Nc4ccc(OCc5cccc(F)c5)c(Cl)c4)c3c2)o1 [Lapatinib] (first compound max 1 µM, 7x7, partner max 10 µM) | 0.307 | 0.207 | 0.446 | 0.93 | 0.527 | 0.0013 | -0.0352
O=C(c1cc(Cc2n[nH]c(=O)c3ccccc23)ccc1F)N1CCN(C(=O)C2CC2)CC1 [Olaparib] + CN(CC[C@H](CSC1=CC=CC=C1)NC2=C(C=C(C=C2)S(=O)(=O)NC(=O)C3=CC=C(C=C3)N4CCC(CC4)[C@H](C5=CC=CC=C5C6=CC=C(C=C6)Cl)O)S(=O)(=O)C(F)(F)F)CCO [AZD4320] (first compound max 10 µM, 7x7, partner max 1 µM) | 0.299 | 0.329 | 0.171 | 0.924 | – | -0.0295 | -0.083
CS(=O)(=O)CCNCc1ccc(-c2ccc3ncnc(Nc4ccc(OCc5cccc(F)c5)c(Cl)c4)c3c2)o1 [Lapatinib] + NC1(c2ccc(-c3nc4ccn5c(=O)[nH]nc5c4cc3-c3ccccc3)cc2)CCC1 [MK-2206] (first compound max 10 µM, 7x7, partner max 10 µM) | 0.442 | 0.889 | 0.9 | 0.964 | 0.952 | -0.027 | -0.0687
C=CCn1c(=O)c2cnc(Nc3ccc(N4CCN(C)CC4)cc3)nc2n1-c1cccc(C(C)(C)O)n1 [AZD1775] + Nc1ccn([C@@H]2O[C@H](CO)[C@@H](O)C2(F)F)c(=O)n1 [Gemcitabine] (first compound max 1 µM, partner max 0.3 µM) | 0.762 | 0.9 | 0.735 | 1 | – | 0.0543 | 0.0712
C[C@@H](Oc1cc(-c2cnn(C3CCNCC3)c2)cnc1N)c1c(Cl)ccc(F)c1Cl [Crizotinib] + CC1=C(C(=CC=C1)Cl)NC(=O)C2=CN=C(S2)NC3=CC(=NC(=N3)C)N4CCN(CC4)CCO [Dasatinib] (first compound max 10 µM, 7x7, partner max 2 µM) | 0.29 | 0.867 | 0.883 | 0.974 | 0.801 | 0.051 | -0.0226
C[C@@H]1COCCN1c1cc(C2([S@](C)(=N)=O)CC2)nc(-c2ccnc3[nH]ccc23)n1 [AZD6738] + Nc1ccn([C@@H]2O[C@H](CO)[C@@H](O)C2(F)F)c(=O)n1 [Gemcitabine] (first compound max 10 µM, 7x7, partner max 0.3 µM) | 0.747 | 0.895 | 0.716 | 1 | – | -0.0243 | 0.0764
C[C@@H](Nc1cc(F)cc(F)c1)c1cc(C(=O)N(C)C)cc2c(=O)cc(N3CCOCC3)oc12 [AZD8186] + C1CN(CCC1(C(=O)N[C@@H](CCO)C2=CC=C(C=C2)Cl)N)C3=NC=NC4=C3C=CN4 [AZD5363] (first compound max 10 µM, 7x7, partner max 10 µM) | 0.112 | 0.24 | 0.716 | 0.57 | – | -0.0411 | -0.0405
CS(=O)(=O)CCNCc1ccc(-c2ccc3ncnc(Nc4ccc(OCc5cccc(F)c5)c(Cl)c4)c3c2)o1 [Lapatinib] + Cn1cnc2c(F)c(Nc3ccc(Br)cc3Cl)c(C(=O)NOCCO)cc21 [Selumetinib] (first compound max 10 µM, 7x7, partner max 10 µM) | 0.151 | 0.656 | 0.565 | 0.994 | 0.521 | -0.018 | -0.0453
Cc1c2c(nn1C)CSCc1cc(n(C)n1)CSc1cc(c3ccccc3c1)OCCCc1c(C(=O)O)n(C)c3c-2c(Cl)ccc13 [AZD5991] + Nc1ccn([C@@H]2O[C@H](CO)[C@@H](O)C2(F)F)c(=O)n1 [Gemcitabine] (first compound max 1 µM, 7x7, partner max 0.3 µM) | 0.486 | 0.657 | 0.483 | 1 | – | -0.0035 | -0.0523
O=C(c1cc(Cc2n[nH]c(=O)c3ccccc23)ccc1F)N1CCN(C(=O)C2CC2)CC1 [Olaparib] + CC1(C)CCC(CN2CCN(c3ccc(C(=O)NS(=O)(=O)c4ccc(NCC5CCOCC5)c([N+](=O)[O-])c4)c(Oc4cnc5[nH]ccc5c4)c3)CC2)=C(c2ccc(Cl)cc2)C1 [Venetoclax] (first compound max 10 µM, 7x7, partner max 1 µM) | 0.235 | 0.182 | 0.114 | 0.835 | – | -0.0044 | -0.0786
C=CCn1c(=O)c2cnc(Nc3ccc(N4CCN(C)CC4)cc3)nc2n1-c1cccc(C(C)(C)O)n1 [AZD1775] + CCc1c2c(nc3ccc(O)cc13)-c1cc3c(c(=O)n1C2)COC(=O)[C@]3(O)CC [SN-38] (first compound max 1 µM, partner max 0.3 µM) | 0.86 | 0.949 | 0.76 | 1 | 0.853 | -0.0704 | -0.0267
O=C(c1cc(Cc2n[nH]c(=O)c3ccccc23)ccc1F)N1CCN(C(=O)C2CC2)CC1 [Olaparib] + COc1nnc2ccc(N3CCC(c4ccc(OCCN5CCN(C)C(=O)[C@H]5C)cc4)CC3)nn12 [AZD5153] (first compound max 10 µM, 7x7, partner max 1 µM) | 0.367 | 0.447 | 0.314 | 0.752 | – | -0.0856 | -0.0367
CN(CCO)CC[C@H](CSc1ccccc1)Nc1ccc(S(=O)(=O)NC(=O)c2ccc(N3CCC([C@@H](O)c4ccccc4-c4ccc(Cl)cc4)CC3)cc2)cc1S(=O)(=O)C(F)(F)F [AZD4320] + CS(=O)(=O)CCNCc1ccc(-c2ccc3ncnc(Nc4ccc(OCc5cccc(F)c5)c(Cl)c4)c3c2)o1 [Lapatinib] (first compound max 1 µM, 7x7, partner max 10 µM) | 0.396 | 0.741 | 0.778 | 0.974 | 0.989 | 0.0005 | 0.0311
